From PMC3095510 (Biomacromolecules, 2011)
Ends that are not written are not given here.

Test system: anthrax lethal toxin (PA and LF), RAW264.7 cells

For HTSTYWWLDGAP, the “concentration up to which cytotoxicity was not inhibited” value was over 2000 µM.
